Patent publication US20100151004A1, “MODULATION OF DRUG SENSITIVITY” (UNIVERSITY OF MEDICINE AND DENTISTRY OF NEW JERSEY, priority 2007, published 2010)
Entries after “also recorded” stand apart in the source; their conditions may differ.

What was measured:
HCT-8/4hFU cells [1] = test: MTS cytotoxicity assay, 4 h bolus drug exposure; type: cell-based, human
Source text: Cancer Res 1992 Apr. […] Louis, Mo., USA).

[2] = test system: UMPK expression in HCT-8/P cells; test: UMPK expression after DAC exposure in cultured cells; type: cell-based, human; conditions: low-dose DAC for 24 h
Description: (§1) Cells (1-5×10^6) were trypsinized, washed twice with PBS and kept frozen in −80° C. until used. Cell pellets or powdered tumors (vide infra) were thawed and resuspended in 0.5 ml of RIPA buffer (50 mM Tris-HCl buffer pH 7.4, 3 mM sodium fluoride and 4 mM DTT) supplemented with protease inhibitors. Samples were sonicated (2×20 s, 60% power) on ice and centrifuged for 20 min at 20,000 rpm. […] of lysate was loaded onto 10% SDS-PAGE gel and after transfer to nitrocellulose probed with anti-UMPK polyclonal antibody (1:1000) for 2 hours (gift of Dr Y. C. Cheng, Yale University) and secondary ant-rabbit antibody (1:5000) for 1 hour (Sigma St Louis, Mo., USA) or anti-α-tubulin (1:10000) for 1 hour (Sigma, St Louis, Mo., USA) and anti-mouse antibody (1:2000) for 0.5 h (Santa Cruz, Calif., USA) as a control.
(§2) Total RNA was extracted from 1-5×10^6 cells or powdered tumors using Trizol Reagent (Invitrogen, Carlsbad, Calif., USA) and run on 1% folmaldehyde-agarose gel to assess the quality of the RNA. […] Delta delta Ct method was used to calculate relative fold change in mRNA level (Livak K J, Schmittgen T D. Analysis of relative gene expression data using real-time quantitative PCR and the 2(−Delta Delta C(T)) Method. Methods 2001 December; 25(4):402-8). […]

[3] = test system: UMPK promoter and first exon CpG sites in HCT-8/4hFU cells; test: Pyro Q-CpG analysis of methylation; type: cell-based, human; conditions: HCT-8/4hFU + 0.5 μM DAC for 24 h
Description: DNA was extracted from tumors or cells using standard phenol-chlorophorm-isoamyl alcohol extraction (Invitrogen, Carlsbad, Calif., USA). 2 μg of sample DNA or 1 μg of control DNA was bisulfite modified using EZ DNA Methylation Kit (Zymo Research, Orange, Calif., USA). 1 ul out of 10 ul of post bisulfite modified DNA was used for PCR. Bisulfite treated fetal cell DNA and in vitro methylated human DNA (Chemicon, Millipore, Billerica, Mass.) were used in the assay development and PCR bias testing. The following reagents were mixed together in preparation for the Pyrosequencing reaction: Streptavidin beads 2 μl, 2× binding buffer 40 μl, PCR product 10 μl, water 28 μl. The assay was performed by EpigenDx (Worcester, Mass., USA) using PSQHS 96 System. Methylation of 42 CpG sites was analyzed.

HCT-8/4hFU tumor = test: Colorectal cancer xenograft model, tumor volume; type: in vivo, mice; conditions: for tumor response (tumor volume): one course, DAC 3×0.5 mg/kg i.p., 5-FU 1×50 mg/kg i.p.; for tumor response (tumor growth): two courses, DAC 3×0.5 mg/kg/course i.p., 5-FU 1×50 mg/kg/course i.p.
Description: (§3) Two independent experiments were performed and animals received either 1 or 2 courses of treatment (1 or 2 weeks) followed by an additional week of observation. […] Prior to the experiment tumors were grounded to a powder in LN2. Following the tumor harvest or if tumor diameter is greater than 1 cm, or greater than 15% weight loss occurred the animals were euthanized. All experiments were performed according to the protocol approved by The Institutional Animal Care and Use Committee at RWJMS. […] Gels were quantitated using ChemiDoc XRS machine and Quantity One 1-D analysis software (BioRad, Hercules, Calif., USA).

HCT-8/P tumor = test: Colorectal cancer xenograft model, tumor volume; type: in vivo, mice
Description: as §3

UMPK in HCT-8/P tumors = test: UMPK mRNA in xenograft tumors after DAC treatment (Q-RT-PCR); type: in vivo, mice; conditions: HCT-8/P group
Description: (§4) Total RNA was extracted from 1-5×10^6 cells or powdered tumors using Trizol Reagent (Invitrogen, Carlsbad, Calif., USA) and run on 1% folmaldehyde-agarose gel to assess the quality of the RNA. Gene specific primers and fluorescent-labeled probe (FAM and TAMRA) were designed using Primer Express Software from ABI (Applied Biosystems, Foster City, Calif., USA). 50 ng of RNA was amplified in one-step RT-PCR reaction (Applied Biosystems, Foster City, Calif., USA) using TaqMan Real-Time PCR machine (7000 SDS). 18SrRNA (FAM) (Applied Biosystems, Foster City, Calif., USA) or β-actin (FAM-TAMRA) was used to normalize the results. Delta delta Ct method was used to calculate relative fold change in mRNA level (Livak K J, Schmittgen T D. Analysis of relative gene expression data using real-time quantitative PCR and the 2(−Delta Delta C(T)) Method. Methods 2001 December; 25(4):402-8). The sequence of UMPK forward primer is 5′-AAGAAGGAAAGATTGTACCAGTTGAGA-3′ (SEQ ID NO: 7), reverse primer 5′-GGAAACCCATCAATCAAGAATTTATT-3′ (SEQ ID NO: 8), and probe 5-FAM-AGAGGGAAATGGATCAGACAATGGCTGC-TAMRA-3′ (SEQ ID NO: 9).
(§5) HCT-8/P or HCT-8/4hFU cells (2.5×10^6) were injected subcutaneously into SKID nu/nu mice (Taconic, Germantown, N.Y., USA). When tumors were palpable animals were randomized into 4 groups (5-10 animals per group) and treated with DAC (Tuesday, Wednesday, Thursday, 0.5 mg/kg, i.p.), or 5-FU (Friday, 50 mg/kg, i.p.), or DAC & 5-FU, or PBS as a control. Measurements of tumor size and animal weight were performed every 3-4 days. Two independent experiments were performed and animals received either 1 or 2 courses of treatment (1 or 2 weeks) followed by an additional week of observation. In order to assay UMPK induction in tumors, animals from DAC alone, and DAC & 5-FU groups received additional course of DAC treatment towards the end of experiment. 24 hours after the third dose of DAC was administered animals were anesthetized, and tumors harvested, washed in PBS and flash frozen in LN2. Prior to the experiment tumors were grounded to a powder in LN2. Following the tumor harvest or if tumor diameter is greater than 1 cm, or greater than 15% weight loss occurred the animals were euthanized. All experiments were performed according to the protocol approved by The Institutional Animal Care and Use Committee at RWJMS.

[4] = test system: UMPK mRNA in HCT-8/4hFU tumors; test: as above; type: in vivo, mice
Description: as §4, §5

[5] = test system: UMPK expression in HCT-8/4hFU cells; test: UMPK mRNA (Q-RT-PCR) and protein (Western blotting) after DAC exposure in cultured cells; type: cell-based, human; conditions: low-dose DAC for 24 h
Description: as §1, §2

HCT-8/P cells = test: MTS cytotoxicity assay, 4 h bolus drug exposure
colorectal cancer = conditions: patients, typical clinical response; cited from earlier work
HCT-8/4hFU cells [6] = test: MTS cytotoxicity assay, continuous 5-FU exposure (4 days); type: cell-based, human
Description: Number of viable cells was determined by MTS assay.

[7] = one course, DAC 3×0.5 mg/kg i.p., 5-FU 1×50 mg/kg i.p.
[8] = two courses, DAC 3×0.5 mg/kg/course i.p., 5-FU 1×50 mg/kg/course i.p.
[9] = DAC 0.0005 μM-0.5 μM, 24 h exposure

With `O=c1[nH]c(=O)n([C@@H]2O[C@H](CO)[C@@H](O)[C@H]2O)cc1F` [5-FUR, 5-fluorouridine] the “increase in the IC50 value, HCT-8/4hFU as compared to HCT-8/P cells” value (HCT-8/4hFU cells [1]; 5-FUR 4 h exposure) was at most 10 fold.
With `Nc1ncn([C@H]2C[C@H](O)[C@@H](CO)O2)c(=O)n1` [DAC, 5-Azadeoxycytidine] the UMPK expression [2] was “No increase”, the “Mean methylation across 36 CpG sites” value [3] was 2.74 and the “tumor response (tumor volume)” value (HCT-8/4hFU tumor) was “resistant”. The “tumor response (tumor growth)” value (HCT-8/4hFU tumor) was “No significant response”, the “tumor response (tumor growth)” value (HCT-8/P tumor; [7]) was “most significant delay in the tumor growth” and the “tumor response (tumor growth)” value (HCT-8/P tumor; [8]) was “most significant effect”. For the same compound, the “increase of UMPK after DAC treatment” value (UMPK in HCT-8/P tumors) was “No increase”, the “increase in UMPK mRNA as compared to untreated tumor” value ([4]; after one course of DAC (3×0.5 mg/kg)) was 4 fold and the “increase in UMPK mRNA as compared to untreated tumor” value ([4]; after two and three weeks of DAC treatment) was at most 20 fold. The “average increase of UMPK in tumors of the group of animals” value ([4]; animals of the two-course experiment, relative to untreated HCT-8/4hFU tumors) was 8.5 fold, the “UMPK mRNA as well as protein levels” value [5] was “dose dependent increase” and the “restoration of sensitivity of HCT-8/4hFU cells to that seen in HCT-8/P cells” value (HCT-8/4hFU cells [1]; 0.02 μM DAC 24 h pretreatment) was “able to restore the sensitivity”. For the same compound, the cell kill (HCT-8/4hFU cells [1]; [9]) was “less than 20%”, the “effect of DAC pretreatment on sensitivity to bolus 5-FU” value (HCT-8/4hFU cells [1]; DAC 24 h pretreatment, then 5-FU 4 h) was “makes HCT-8/4hFU cells sensitive” and the “effect of DAC pretreatment on sensitivity to 5-FUR” value (HCT-8/4hFU cells [1]; DAC 24 h pretreatment, then 5-FUR 4 h) was “makes HCT-8/4hFU cells sensitive”. The cell kill (HCT-8/P cells; [9]) was “less than 20%” and the “effect of DAC on sensitivity of HCT-8/P cells to 5-FU or 5-FUR” value (HCT-8/P cells; DAC 24 h pretreatment, then 5-FU or 5-FUR 4 h) was “Much less of an effect; also recorded: do not show increased sensitivity”.
In the case of `O=c1[nH]cc(F)c(=O)[nH]1` [5-FU, 5-Fluorouracil], the response rate (colorectal cancer) is listed as “less than 30%”, the “sensitivity to continuous exposure to 5-FU, HCT-8/4hFU versus HCT-8/P” value (HCT-8/4hFU cells [6]) is listed as “equally sensitive” and the “tumor response (tumor volume)” value (HCT-8/4hFU tumor) is listed as “resistant”. The “tumor response (tumor growth)” value (HCT-8/4hFU tumor) was “partial response”, the “tumor response (tumor growth)” value (HCT-8/P tumor; [7]) was “responded” and the “tumor response (tumor growth)” value (HCT-8/P tumor; [8]) was “responded”. For the same compound, the “fold resistance to bolus 5-FU, HCT-8/4hFU versus HCT-8/P” value (HCT-8/4hFU cells [1]; bolus 4 h exposure, cell viability assay) was 3-4 fold.
